In assay [1] the target is T1, rat TRPV1 (Rattus norvegicus, UniProt O35433). Briefly: biochemical. The format is binding.
Assay [2] has as its target T1, rat TRPV1. The conditions noted are these: for decrease in agonism on replacing or removing the 3-methoxy group of compound 1: comparator not given.
Assay [3] deals with transient receptor potential vanilloid 1 (TRPV1) channel. Particulars: cited from earlier work.
In the next assay the test system is TRPV1. The conditions noted are these: cited from earlier work.
The conditions of assay [4]: cited from earlier work.

Structures are written as SMILES.

T1 sequence (O35433 whole entry): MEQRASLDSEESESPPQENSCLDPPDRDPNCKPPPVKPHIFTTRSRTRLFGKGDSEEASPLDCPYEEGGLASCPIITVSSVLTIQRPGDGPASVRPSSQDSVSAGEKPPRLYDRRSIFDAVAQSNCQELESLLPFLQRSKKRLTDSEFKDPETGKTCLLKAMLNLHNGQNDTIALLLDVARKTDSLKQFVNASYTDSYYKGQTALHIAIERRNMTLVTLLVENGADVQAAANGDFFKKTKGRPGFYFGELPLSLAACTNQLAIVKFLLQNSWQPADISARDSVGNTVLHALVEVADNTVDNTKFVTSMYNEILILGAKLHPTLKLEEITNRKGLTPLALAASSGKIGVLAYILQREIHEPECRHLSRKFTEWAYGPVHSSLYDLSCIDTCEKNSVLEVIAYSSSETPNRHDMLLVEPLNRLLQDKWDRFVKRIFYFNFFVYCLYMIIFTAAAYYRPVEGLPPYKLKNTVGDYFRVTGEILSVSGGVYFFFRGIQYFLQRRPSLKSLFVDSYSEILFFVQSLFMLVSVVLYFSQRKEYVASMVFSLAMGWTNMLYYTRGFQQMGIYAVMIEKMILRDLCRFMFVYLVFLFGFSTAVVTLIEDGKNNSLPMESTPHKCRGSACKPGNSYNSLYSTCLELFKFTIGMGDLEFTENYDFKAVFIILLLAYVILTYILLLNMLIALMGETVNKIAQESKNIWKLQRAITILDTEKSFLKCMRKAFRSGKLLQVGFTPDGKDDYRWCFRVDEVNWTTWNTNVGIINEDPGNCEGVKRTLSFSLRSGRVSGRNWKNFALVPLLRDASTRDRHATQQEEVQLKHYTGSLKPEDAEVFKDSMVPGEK

In general, Ki refers to the dissociation constant of the complex between target and ligand, obtained from inhibition or displacement. `C=C(C)[C@@]12C[C@@H](C)[C@@]34OC(Cc5ccccc5)(O[C@@H]1[C@@H]3C=C(COC(=O)Cc1ccccc1F)C[C@]1(O)C(=O)C(C)=C[C@@H]41)O2` [Compound 4, 2-Fluoro analogue] returned a Ki at rat TRPV1 [1] of 0.73 nM.

On to `C=C(C)[C@@]12C[C@@H](C)[C@@]34OC(Cc5ccccc5)(O[C@@H]1[C@@H]3C=C(COC(=O)Cc1ccc(F)cc1F)C[C@]1(O)C(=O)C(C)=C[C@@H]41)O2` [Compound 8, 2,4-Difluoro analogue], for which the “relative agonism compared to RTX” value on rat TRPV1 [2] (compared to RTX) is recorded as 0.15.

Regarding `C=C(C)[C@@]12C[C@@H](C)[C@@]34OC(Cc5ccccc5)(O[C@@H]1[C@@H]3C=C(COC(=O)Cc1ccc(NS(C)(=O)=O)cc1)C[C@]1(O)C(=O)C(C)=C[C@@H]41)O2` [Compound 3, 4-(Methylsulfonylamino) analogue], on rat TRPV1 [2], the “decrease in agonism on replacing or removing the 3-methoxy group of compound 1” value was 7 fold.

Take `C=C(C)[C@@]12C[C@@H](C)[C@@]34OC(Cc5ccccc5)(O[C@@H]1[C@@H]3C=C(CNC(=O)Cc1ccc(NS(C)(=O)=O)cc1)C[C@]1(O)C(=O)C(C)=C[C@@H]41)O2` [Compound 14, Amide analogue]: at rat TRPV1 [1] (compared to compound 3), the “drop in binding, amide versus ester compound 3” value amounted to 50 fold. For the same molecule, on rat TRPV1 [2] (compared to compound 3), the “drop in agonism, amide versus ester compound 3” value was determined as 210 fold.

For the molecule `C=C(C)[C@]12C[C@@H](C)[C@@]34O[C@](Cc5ccccc5)(O[C@@H]1[C@@H]3C=C(COC(=O)Cc1ccc(O)c(OC)c1)C[C@]1(O)C(=O)C(C)=C[C@@H]41)O2` [RTX, Resiniferatoxin], in assay [3], the “greater potency than the prototypic agonist capsaicin” value is given as 10^3- to 10^4 fold.

In the case of `C=C(C)[C@]12C[C@@H](C)[C@@]34O[C@](Cc5ccccc5)(O[C@@H]1[C@@H]3C=C(COC(=O)Cc1ccc(O)cc1)C[C@]1(O)C(=O)C(C)=C[C@@H]41)O2` [tinyatoxin], the “decrease in binding potency compared to RTX” value in the assay with TRPV1 is on record as 3 fold. Besides, the “loss of biological potency compared to RTX” value in assay [4] is 6 fold.

As for `C=C(C)[C@@]12C[C@@H](C)[C@@]34OC(Cc5ccccc5)(O[C@@H]1[C@@H]3C=C(COC(=O)Cc1ccc(NS(C)(=O)=O)c(OC)c1)C[C@]1(O)C(=O)C(C)=C[C@@H]41)O2` [Compound 1, 3-Methoxy-4-(methylsulfonylamino) analogue], the “reduction in binding affinity compared to RTX” value at rat TRPV1 [1] is 5 fold. Also, the “enhancement of functional activity (agonism) compared to RTX” value at rat TRPV1 [2] amounted to 2.5 fold.

With `C=C(C)[C@@]12C[C@@H](C)[C@@]34OC(Cc5ccccc5)(O[C@@H]1[C@@H]3C=C(COC(=O)Cc1cc(F)ccc1F)C[C@]1(O)C(=O)C(C)=C[C@@H]41)O2` [Compound 9, 2,5-Difluoro analogue], the “relative affinity compared to RTX” value on rat TRPV1 [1] (compared to RTX) turned out to be 0.1.

Turning to `C=C(C)[C@@]12C[C@@H](C)[C@@]34OC(Cc5ccccc5)(O[C@@H]1[C@@H]3C=C(COC(=O)Cc1ccc(NS(C)(=O)=O)c(F)c1)C[C@]1(O)C(=O)C(C)=C[C@@H]41)O2` [Compound 2, 3-Fluoro-4-(methylsulfonylamino) analogue], on rat TRPV1 [2], the “decrease in agonism on replacing or removing the 3-methoxy group of compound 1” value was 9 fold.

Source of the values: paper PMC2798733 (Bioorganic & medicinal chemistry, 2008).
